Experiments:
kinase IRAK4 = kinase IRAK4 (Homo sapiens (Human), UniProt Q9NWZ3); test: Inhibitory effects of compounds on kinase activity (fluorescence microfluidic mobility detection, competitive with ATP); assay type: biochemical; settings: IRAK4 6 nM, ATP 10 μM
Method: Based on an experimental method of fluorescence microfluidic mobility detection, an IC50 value of competitive binding of kinase IRAK4 to ATP by the compounds was determined. The initial detection concentration of the compounds was 10 μM, diluted 4-fold gradient down to […], and tested in duplicate. Among them, commercial staurosporine was the standard control substance in this experiment.
1) IRAK4 kinase was dissolved in kinase buffer (50 mM HEPES pH 7.5, 10 mM MgCl2, 2 mM DTT and 0.01% Brij-35) to a final concentration of 6 nM.
2) The substrate peptide FAM-P8 and ATP were dissolved in the above kinase buffer. The final concentrations of the IRAK4 substrate peptide FAM-P8 and ATP were 3 μM and 10 μM respectively.
3) Dilution of the compounds: the compound was first diluted to 50 μM, and then diluted down with a 4-fold gradient of DMSO. The solution without the compound and kinase is used as a blank control, corresponding to the “minimum value” shown below; and the solution without the compound but with kinase, adenosine 5′-triphosphate disodium salt hydrate, DMSO and buffer is used as a positive control, corresponding to the “maximum value” shown below. 4) Kinase reaction and termination: 10 μL of kinase buffer was added to a 384-well plate containing 5 μL of the compound to be tested, and incubated at room temperature for 10 minutes. Another 10 μL of buffer containing the substrate peptide and adenosine 5′-triphosphate disodium salt hydrate was added to the 384-well plate. After incubation at 28° C. for one hour, 25 μL stop solution (100 mM HEPES pH 7.5, 50 mM EDTA, 0.2% Coating Reagent #3 and 0.015% Brij-35) was added to each well to terminate the reaction.
5) Data reading: the CaliperEZ Reader II instrument was used to read the conversion rate data. Conditions: downstream voltage −500V, upstream voltage −2250V, base pressure −0.5 PSI, and screening pressure −1.2 PSI.
6) Data calculation: the conversion rate data was copied from CaliperEZ Reader II and converted into inhibition rate data. The calculation formula is as follows:
[formula] • IC50 values were fitted using XLFit excel add-in version 5.4.0.8,
Y=Bottom+(Top−Bottom)/(1+(IC50/X)^HillSlope) Fitting formula: […]

[1] = target: IRAK4 protein in THP-1 cells (Homo sapiens (Human), UniProt Q9NWZ3); test: PROTAC-induced IRAK4 protein degradation in THP-1 cells (Western Blot); assay type: cell-based; settings: for DC50: concentration that degraded 50% of IRAK4, Western blotting, 24 hours after administration; for IRAK4 degradation rate 24 hours after administration of the compounds with a concentration of 1 μM: Western blotting
IRAK4 protein in THP-1 cells, sequence (Q9NWZ3 whole entry): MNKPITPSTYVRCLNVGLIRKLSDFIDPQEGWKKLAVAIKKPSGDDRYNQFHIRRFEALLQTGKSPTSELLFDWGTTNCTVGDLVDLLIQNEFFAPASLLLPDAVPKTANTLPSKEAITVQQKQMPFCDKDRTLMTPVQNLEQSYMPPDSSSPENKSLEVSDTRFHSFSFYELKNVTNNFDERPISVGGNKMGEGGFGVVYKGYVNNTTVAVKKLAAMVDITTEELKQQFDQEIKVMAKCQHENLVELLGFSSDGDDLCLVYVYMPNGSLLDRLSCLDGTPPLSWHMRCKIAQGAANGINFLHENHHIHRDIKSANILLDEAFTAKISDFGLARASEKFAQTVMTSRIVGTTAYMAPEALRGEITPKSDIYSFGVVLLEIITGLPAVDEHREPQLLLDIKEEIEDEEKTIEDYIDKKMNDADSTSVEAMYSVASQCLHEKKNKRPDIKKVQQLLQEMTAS
Method: 2.1 Based on the experimental method of Western Blot, specific antibodies were used to stain the THP-1 cell samples treated by gel electrophoresis, and the degrading activity of the compounds on the IRAK4 protein in THP-1 cells was determined by analyzing the position and depth of staining. The concentrations of compound for the detection included 0 μM, 0.3 μM, 1 μM and 3 μM, and the cells were treated by the compound for 8 hours, 16 hours, 24 hours, and 48 hours. Glyceraldehyde-3-phosphate dehydrogenase (GAPDH) is an internal reference protein in this experiment.
Electrophoresis buffer: 50 mL MOPS SDS Running Buffer (20×) and 50 mL 20×TBS Tween-20 buffer were diluted with deionized water to 1 L as the electrophoresis buffer;
5% skim milk (w/v): 2.5 g skim milk was diluted with 50 mL 1×TBS Tween-20 buffer to prepare 5% skim milk;
5% BSA (w/v): 2.5 g BSA was diluted with 50 mL 1×TBS Tween-20 buffer to prepare 5% BSA;
Anti-IRAK4 antibody was diluted with 5% BSA at 1:1000 into a primary antibody working solution;
Goat Anti-Rabbit IgG H&L (HRP) was diluted with 5% BSA at 1:2000 into a second antibody working solution; and
Goat Anti-Mouse IgG H&L (HRP) was diluted with 5% BSA at 1:2000 into a second antibody working solution.
THP-1 cells were plated in a 6-well plate at a density of 1.5×10^6 cells per ml and incubated for 2 hours in a cell culture incubator under 37° C. and 5% CO2. The compound was diluted with DMSO to 0.6 mM, 0.2 mM and 0.06 mM respectively. 10 μL of compound solution was added to the corresponding wells, and continued to incubate in the incubator for 16 hours, 24 hours and 48 hours respectively. The compound-treated THP-1 cells in the well were collected, added with 120 μL of RIPA lysate containing protease inhibitor, Phosphatase Inhibitor Cocktail 2 and Phosphatase Inhibitor Cocktail 3, lysed on wet ice for 30 minutes, and then the cells lysate was centrifuged at a high speed and a low temperature for 5 minutes to collect the supernatant. The protein concentration of the cell sample was determined according to the instructions in the Pierce™ BCA Protein Assay Kit.
The concentration of the sample was adjusted to be consistent using lysis buffer and NuPAGE® LDS sample buffer containing 1M DTT. The samples were heated at 95° C. for 5 minutes and centrifuged at a low temperature and at a high speed. 20 μL of the prepared protein sample and 4 μL of PageRuler Prestained Protein Ladder were added into the gel well for running at 80V voltage for 0.5 hours, then the voltage was adjusted to 120V for further running for 1.5 hours. The gel was removed and the proteins in the gel were transferred to the IBlotTM 2 transfer membrane set at 20V. After successful transfer, bands at 65 kDa-40 kDa and 40 kDa-30 kDa were cut respectively. The membranes were blocked with 5% skim milk for 1 hour at room temperature. The membranes were washed three times with 1× concentration of TBST, then incubated with IRAK4 antibody working solution overnight at 4° C. The IRAK4 antibody working solution was discarded, and the membranes were washed three times with 1×concentration of TBST, and incubated with Goat Anti-Rabbit IgG H&L (HRP) working solution and Goat Anti-Mouse IgG H&L (HRP) working solution at room temperature. After 1 hour of incubation, the antibody working solution was discarded and the membranes were washed three times with 1× concentration of TBST. According to the instructions of the kit SuperSignal™ West Femto Maximum Sensitivity Substrate, the reagents in the kit were mixed in equal volume proportions to prepare a luminescent liquid mixture. The membranes were incubated for 1 minute, then removed for exposure.
The results of Western blotting 24 hours after administration of the compounds with a concentration of 1 μM were shown in Table 3: […]

kinase IRAK4, sequence (Q9NWZ3 whole entry): as above

| SMILES | IC50 (kinase IRAK4; Table 2, substrate FAM-P8 3 μM) | DC50 [1] | IC50 (kinase IRAK4; Table 1, class symbols) | IRAK4 degradation rate 24 hours after administration of the compounds with a concentration of 1 μM [1] |
| --- | --- | --- | --- | --- |
| Cc1cccc(C(=O)Nc2cc3cn(C4CC5(CCN(C(=O)C6CCN(c7ccc8c(c7)C(=O)N([C@@H]7CCC(=O)NC7=O)C8=O)CC6)CC5)C4)nc3cc2C(C)(C)O)n1 [Compound I-64] | 22.7 nM | 2.32 nM | – | – |
| COc1cc2nn(C3CC4(CCN(C5CCN(C(=O)c6ccc7c(c6)C(=O)N(C6CCC(=O)NC6=O)C7=O)CC5)CC4)C3)cc2cc1NC(=O)c1cccc(C(F)(F)F)n1 (stereo not drawn) [Compound I-51] | 5.33 nM | 149 nM | – | – |
| COc1cc2nn(C3CC4(CCN(C(=O)C5CCN(c6cc7c(cc6F)C(=O)N(C6CCC(=O)NC6=O)C7=O)CC5)CC4)C3)cc2cc1NC(=O)c1cccc(C(F)(F)F)n1 (stereo not drawn) [Compound I-8] | 25.9 nM | 8.2 nM | < 100 nM | – |
| COc1cc2nn(C3CCC4(CC3)CN(C(=O)C3CCN(c5ccc6c(c5)C(=O)N(C5CCC(=O)NC5=O)C6=O)CC3)C4)cc2cc1NC(=O)c1cccc(C(F)(F)F)n1 (stereo not drawn) [Compound I-19] | 8.1 nM | 1.78 nM | – | – |
| COc1cc2nn(C3CC4(CCN(C(=O)C5CCN(c6ccc7c(c6)C(=O)N(C6CCC(=O)NC6=O)C7=O)CC5)CC4)C3)cc2cc1NC(=O)c1cccc(C(F)F)n1 (stereo not drawn) [Compound I-42] | 10.2 nM | 1.2 nM | – | – |
| CC(C)(O)c1cc2nn(C3CCN(CC(=O)N4CCN(c5ccc6c(c5)C(=O)N(C5CCC(=O)NC5=O)C6=O)CC4)CC3)cc2cc1NC(=O)c1cccc(C(F)(F)F)n1 (stereo not drawn) [II-6] | 8.2 nM | 9.99 nM | < 100 nM | 75~100% |
| CC(C)(O)c1cc2nn(C3CC4(CCN(C(=O)C5CCN(c6ccc7c(c6)C(=O)N([C@H]6CCC(=O)NC6=O)C7=O)CC5)CC4)C3)cc2cc1NC(=O)c1cccc(C(F)(F)F)n1 [Compound I-63] | 32.1 nM | 2.41 nM | – | – |
| O=C1CCC(N2C(=O)c3ccc(N4CCC(C(=O)N5CCC6(CC5)CC(n5cc7cc(NC(=O)c8cccc(C(F)(F)F)n8)c(N8CCOCC8)cc7n5)C6)CC4)cc3C2=O)C(=O)N1 (stereo not drawn) [Compound I-9] | 32.9 nM | 12 nM | – | – |
| COc1cc2nn(C3CCN(C(=O)C4CCN(Cc5ccc6c(c5)C(=O)N(C5CCC(=O)NC5=O)C6=O)CC4)CC3)cc2cc1NC(=O)c1cccc(C(F)(F)F)n1 (stereo not drawn) [II-16] | 14 nM | 32.9 nM | < 100 nM | <25% |
| CC(O)(c1cc2nn(C3CC4(CCN(C(=O)C5CCN(c6ccc7c(c6)C(=O)N(C6CCC(=O)NC6=O)C7=O)CC5)CC4)C3)cc2cc1NC(=O)c1cccc(C(F)(F)F)n1)C(F)(F)F (stereo not drawn) [Compound I-12F] | 57.6 nM | 1.08 nM | – | – |
| COc1cc2nn(C3CC4(CCN(C(=O)C5(F)CCN(c6ccc7c(c6)C(=O)N(C6CCC(=O)NC6=O)C7=O)CC5)CC4)C3)cc2cc1NC(=O)c1cccc(C(F)(F)F)n1 (stereo not drawn) [Compound I-34] | 39.7 nM | 22.7 nM | – | – |
| COc1cc2nn(C3CC4(CCN(C(=O)C5CCN(c6ccc7c(c6)C(=O)N([C@H]6CCC(=O)NC6=O)C7=O)CC5)CC4)C3)cc2cc1NC(=O)c1cccc(C(F)(F)F)n1 [Compound I-57] | 32.4 nM | 12.2 nM | – | – |
| O=C1CCC(N2C(=O)c3ccc(N4CCC(C(=O)N5CCC6(CC5)CC(n5cc7cc(NC(=O)c8cccc(C(F)(F)F)n8)c(N8CC[C@@H](O)C8)cc7n5)C6)CC4)cc3C2=O)C(=O)N1 (stereo partly drawn) [Compound I-10] | 24 nM | 5.07 nM | – | – |
| COc1cc2nn(C3CC4CCC(C3)N4CC(=O)N3CCN(c4ccc5c(c4)C(=O)N(C4CCC(=O)NC4=O)C5=O)CC3)cc2cc1NC(=O)c1cccc(C(F)(F)F)n1 (stereo not drawn) [II-13] | 10.5 nM | 478 nM | < 100 nM | – |
| COc1cc2nn(C3CC4(CCN(C(=O)C5CCN(c6ccc7c(c6)C(=O)N(C6CCC(=O)NC6=O)C7=O)CC5(F)F)CC4)C3)cc2cc1NC(=O)c1cccc(C(F)(F)F)n1 (stereo not drawn) [Compound I-35] | 33.4 nM | 7.86 nM | – | – |
| O=C1CCC(N2C(=O)c3ccc(N4CCC(C(=O)N5CCC6(CC5)CC(n5cc7cc(NC(=O)c8cccc(C(F)(F)F)n8)c(C(=O)O)cc7n5)C6)CC4)cc3C2=O)C(=O)N1 (stereo not drawn) [Compound I-48] | 19.2 nM | > 1000 nM | – | – |
| O=C1CCC(N2C(=O)c3ccc(N4CCC(C(=O)N5CCC6(CC5)CC(n5cc7cc(NC(=O)c8cccc(C(F)(F)F)n8)c(F)cc7n5)C6)CC4)cc3C2=O)C(=O)N1 (stereo not drawn) [Compound I-53] | 138 nM | > 1000 nM | – | – |
| COc1cc2nn(C3CC4(CCN(C(=O)C5CCN(c6ccc7c(c6)C(=O)N(C6CCC(=O)NC6=O)C7=O)CC5)CC4)C3)cc2cc1NC(=O)c1cccc(N2CCOCC2)n1 (stereo not drawn) [Compound I-41] | 49.8 nM | 4.42 nM | – | – |
| COc1cc2nn(C3CC4(CCN(C(=O)[C@H]5CC[C@H](Oc6ccc7c(c6)C(=O)N(C6CCC(=O)NC6=O)C7=O)CC5)CC4)C3)cc2cc1NC(=O)c1cccc(C(F)(F)F)n1 (stereo partly drawn) [Compound I-31] | 34 nM | 47.3 nM | – | – |
| COc1cc2nn(C3CC4(CCN(C(=O)[C@H]5CC[C@H](Nc6ccc7c(c6)C(=O)N([C@H]6CCC(=O)NC6=O)C7=O)CC5)CC4)C3)cc2cc1NC(=O)c1cccc(C(F)(F)F)n1 [Compound I-59] | 27.3 nM | 8.05 nM | – | – |
| COc1cc2nn(C3CC4(CCN(C(=O)C5CCN(c6cc7c(cc6F)C(=O)N(C6CCC(=O)NC6=O)C7=O)CC5)CC4)C3)cc2cc1NC(=O)c1cccc(N2CCOCC2)n1 (stereo not drawn) [Compound I-46] | 17.7 nM | 9.15 nM | – | – |
| O=C1CCC(N2C(=O)c3ccc(N4CCN(C(=O)CN5CCC(n6cc7cc(NC(=O)c8cccc(C(F)(F)F)n8)c(OC(F)(F)F)cc7n6)CC5)CC4)cc3C2=O)C(=O)N1 (stereo not drawn) [II-2] | 34 nM | 32.8 nM | – | – |
| COc1cc2nn(C3CC4(CCC(NC5CCN(c6ccc7c(c6)C(=O)N(C6CCC(=O)NC6=O)C7=O)CC5)CC4)C3)cc2cc1NC(=O)c1cccc(C(F)(F)F)n1 (stereo not drawn) [Compound I-16] | 11.6 nM | 9.9 nM | – | – |
| COc1cc2nn(C3CCN(CC(=O)N4CCN(c5ccc6c(c5)CN(C5CCC(=O)NC5=O)C6=O)CC4)CC3)cc2cc1NC(=O)c1cccc(C(F)(F)F)n1 (stereo not drawn) [II-7] | 3.57 nM | 2.2 nM | – | – |
